# According to patent publication US20240261295A1, “COMBINATIONS OF WEE1 INHIBITORS AND ANTI-CD47 ANTIBODIES” (Recurium IP Holdings, LLC, priority 2021, published 2024):
# Test system: RPMI-8226 cells
# Experiment: RPMI-8226 xenograft model, tumor volume
# Format: in vivo, Mice
# Details: ZN-c3 60 mg/kg p.o. qd×21, single agent, RPMI-8226 subcutaneous xenograft
# Protocol: Mice were inoculated with RPMI-8226 cells subcutaneously on the right flank with the single cell suspension of 95% viable tumor cells ([…]) in 100 μL RPMI 1640 Matrigel mixture (1:1 ratio) without serum for the tumor development. The treatment was started when the mean tumor size reached approximately 200 mm^3, with individual tumor size ranging from 185-235 mm^3. Animals were randomly distributed into treatment groups of 10 animals each and dosed with vehicle and indicated compounds at the indicated dosage and frequency shown in FIG. 2 and Table 1. In FIG. 2, the bottom line with circles is ZN-c3 60 mg/kg p.o. qd×21+Anti-CD47 20 mg/kg ip BIW×3. Anti-CD47 was obtained from Bio X Cell (clone B6.H12, catalog number BE0019-1). Tumor volumes were evaluated twice per week to calculate tumor volume over time, and the mice were weighed twice per week as a surrogate for signs of toxicity. Tumor growth inhibition (TGI) was calculated using the following equation TGI=(1−(Td−T0)/(Cd−C0))×100%. Td and Cd are the mean tumor volumes of the treated and control animals, and T0 and C0 are the mean tumor volumes of the treated and control animals at the start of the experiment. The tumor regression was defined as individual tumor volume (TV) decrease (terminal TV compared to initial TV). The percent tumor regression was calculated using the formula: (1−(Td/T0))×100%.
smiles,measurement,value
C=CCn1c(=O)c2cnc(Nc3ccc(N4CCN(C)CC4)cc3)nc2n1-c1ccc2c(n1)[C@@](O)(CC)CC2 [ZN-c3],TGI % (Day 21),61%
